In patent US20200157144A1, “ANTIMICROBIAL PEPTIDOMIMETICS” (priority 2017, published 2020):
Values after ≈ are worked out from the molar mass of the structure shown. Values joined by “and” are separate entries in the source; they are usually repeats but may differ in a detail not shown here. Identical values can stand only once.

Legend:
Assay in all cases: microbe, parasite or virus in culture
[1] = system: Enterococcus faecium ATCC BAA-2320; format: cell-based; settings: Enterococcus faecium, ATCCBAA2320
Description: (§1) The antibacterial potency of Compound 34 was measured using the in vitro broth microdilution assay under assay conditions described by the Clinical and Laboratory Standards Institute. […] The test substance was dissolved in 100% DMSO (unless stated below), suspended completely by sonication or vortexing, diluted by 2-fold serial titrations in the same vehicle, for a total of 10 test concentrations (final concentrations: 100, 50, 25, 12.5, 6.25, 3.125, 1.56, 0.78, 0.39, 0.2 μM). A 4 μL aliquot of each dilution was added to 196 μL of broth medium seeded with the organism suspension in wells of a 96 well plate (bacterial count: 2-8×10^5 colony forming units/mL final). The final volume was 200 μL in each well and the final DMSO concentration was 2 percent. The incubation time is either 1 or 2 days at 36° C. All strains tested underwent aerobic respiration, except for ATCC BAA-1805 and ATCC 29399. Following incubation, the test plates were visually examined and wells were scored for growth or complete growth inhibition to define the minimum inhibitory concentration. Each test substance was evaluated in duplicate and the results below are the duplicate test values. Vehicle-control and an active reference agent were used as blank and positive controls, respectively.

[2] = system: Enterococcus faecalis ATCC 51299; format: cell-based; settings: Enterococcus faecalis, ATCC51299
Description: as §1

[3] = system: Mupirocin-resistant MRSA ATCC-BAA-1556; format: cell-based, Staphylococcus aureus; settings: Staphylococcus aureus
Description: (§2) The MICs of test compounds were determined using the microdilution method from the Clinical and Laboratory Standards Institute (CLSI) guidelines (Clinical and Laboratory Standards Institute. Methods for dilution antimicrobial susceptibility tests for bacteria that grow aerobically; approved standard—ninth edition. Document M07-A9. Vol. 32 No. 2. Wayne, Pa.: CLSI; 2012). Briefly, bacteria were grown fresh from frozen stock in Mueller Hinton 2 (MH2) agar at 37° C. After an overnight incubation, 5 bacteria colonies were selected to grow in cation-adjusted MH2 broth in a shaking incubator (140 RPM) at 37° C. Cells were grown to an optical density (OD600) of 0.15-0.16 determined using a spectrophotometer (Molecular Devices Spectra Max Plus), which corresponds to ˜1×10^8 CFU/mL. Test compounds were constituted into 4 mM DMSO stock solutions and then subjected to 2-fold serial dilution in a 96-well plate with concentrations ranging from 100 to 0.195 μM in duplicates. […] of microbial culture containing ˜1×10^6 CFU/mL of microbes in the respective broths was introduced into each well containing 50 μL of compound solution. After an overnight incubation at 35° C., (220 RPM), OD600 measurements were conducted using the microplate spectrophotometer. The MIC was defined as the lowest antibiotic or compound concentration (μM) required to inhibit bacteria growth.
(§3) The 11th well was used as the growth control well (medium with bacterial inoculums, no antibacterial) while the 12th well was the sterility control well (medium only).

[4] = system: Mupirocin-susceptible MRSA ATCC-BAA-1754 (ST45); format: cell-based, Staphylococcus aureus; settings: Staphylococcus aureus
Description: as §2, §3

[5] = system: Mupirocin-resistant MRSA ATCC-BAA-1750 (USA200); format: cell-based, Staphylococcus aureus; settings: Staphylococcus aureus
Description: as §2, §3

[6] = system: Mupirocin-susceptible MRSA ATCC-BAA-1681 (USA100); format: cell-based, Staphylococcus aureus; settings: Staphylococcus aureus
Description: as §2, §3

[7] = system: Mupirocin-susceptible MRSA ATCC-BAA-2762 (EMRSA15, ST22); format: cell-based, Staphylococcus aureus; settings: Staphylococcus aureus
Description: as §2, §3

[8] = system: Mupirocin-susceptible MRSA ATCC-BAA-1756 (USA300); format: cell-based, Staphylococcus aureus; settings: Staphylococcus aureus
Description: as §2, §3

[9] = system: Mupirocin-susceptible MRSA ATCC-BAA-1707 (USA400); format: cell-based, Staphylococcus aureus; settings: Staphylococcus aureus
Description: as §2, §3

[10] = system: Mupirocin-susceptible MRSA ATCC-700699 (VISA); format: cell-based, Staphylococcus aureus; settings: Staphylococcus aureus
Description: as §2, §3

[11] = system: Mupirocin-resistant MRSA ATCC-BAA-1708; format: cell-based, Staphylococcus aureus; settings: Staphylococcus aureus
Description: as §2, §3

[12] = system: Mupirocin-susceptible MRSA ATCC-33592 (ST239); format: cell-based, Staphylococcus aureus; settings: Staphylococcus aureus
Description: as §2, §3

[13] = system: Staphylococcus aureus ATCC 19636; format: cell-based; settings: Staphylococcus aureus, ATCC19636
Description: as §1, with “values.” for “values. Vehicle-control and an active reference agent were used as blank and positive controls, respectively.”

[14] = system: Staphylococcus aureus ATCC BAA-1717; format: cell-based; settings: Staphylococcus aureus, ATCCBAA1717
Description: as §1, with “values.” for “values. Vehicle-control and an active reference agent were used as blank and positive controls, respectively.”

[15] = system: Staphylococcus epidermidis ATCC 12228; format: cell-based; settings: Staphylococcus epidermidis, ATCC12228
Description: as §1, with “values.” for “values. Vehicle-control and an active reference agent were used as blank and positive controls, respectively.”

[16] = system: Propionibacterium acnes ATCC 29399; format: cell-based; settings: Cutibacterium acnes, ATCC29399
Description: as §1

In the case of `CN(C)c1cc(NC(=O)CNC(C)(C)C)c(O)c2c1C[C@H]1C[C@H]3[C@H](N(C)C)C(O)=C(C(N)=O)C(=O)[C@@]3(O)C(O)=C1C2=O` [Tigecycline], the MIC [1] is reported as 0.063 µg/mL and 0.11 µM and the MIC [2] is reported as 0.063 µg/mL and 0.11 µM.

`CN[C@H](CC(C)C)C(=O)N[C@H]1C(=O)N[C@@H](CC(N)=O)C(=O)N[C@H]2C(=O)N[C@H]3C(=O)N[C@H](C(=O)N[C@H](C(=O)O)c4cc(O)cc(O)c4-c4cc3ccc4O)[C@H](O)c3ccc(c(Cl)c3)Oc3cc2cc(c3O[C@@H]2O[C@H](CO)[C@@H](O)[C@H](O)[C@H]2O[C@H]2C[C@](C)(N)[C@H](O)[C@H](C)O2)Oc2ccc(cc2Cl)[C@H]1O` [Vancomycin] was tested, and the MIC [3] was 0.78 µM (≈ 1.13 µg/mL), the MIC [4] was 0.78 µM (≈ 1.13 µg/mL) and the MIC [5] was 0.78 µM (≈ 1.13 µg/mL). It also gave an MIC [6] of 1.56 µM (≈ 2.26 µg/mL), an MIC [7] of 0.78 µM (≈ 1.13 µg/mL) and an MIC [8] of 0.78 µM (≈ 1.13 µg/mL). For the same compound, the MIC [9] was 0.78 µM (≈ 1.13 µg/mL), the MIC [10] was 6.25 µM (≈ 9.06 µg/mL) and the MIC [11] was 0.78 µM (≈ 1.13 µg/mL). For the same compound, the MIC [12] was 0.78 µM (≈ 1.13 µg/mL), the MIC [13] was 1 µg/mL (≈ 0.69 µM) and the MIC [14] was 1 µg/mL (≈ 0.69 µM). The MIC [15] was 1 µg/mL (≈ 0.69 µM) and the MIC [16] was 0.5 µg/mL and 0.35 µM.
